In ChEMBL document CHEMBL1201862, “PubChem BioAssay data set” (2004):
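Protocol summary: plate cells (96-well), add compound at 5 concentrations, incubate 48 h, interpolate endpoints linearly. GI50 is the concentration that inhibits growth by half.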 Activity calls are given as the source filed them. Rule as the data show it: active = GI50 up to about 1.1 µM and inactive = higher.

What was measured:
Experiment in all cases: NCI tumour cell line growth inhibition, 48 h
SR = test system: SR
NCI-H226 = test system: NCI-H226
SNB-19 = test system: SNB-19
NCI-H460 = test system: NCI-H460
A498 = test system: A498
LOX IMVI = test system: LOX IMVI
K562 = test system: K562
NCI-H522 = test system: NCI-H522
UACC-62 = test system: UACC-62
MOLT-4 = test system: MOLT-4
COLO 205 = test system: COLO 205
RPMI-8226 = test system: RPMI-8226
OVCAR-8 = test system: OVCAR-8
SF-295 = test system: SF-295
HT-29 = test system: HT-29
UO-31 = test system: UO-31
CCRF-CEM = test system: CCRF-CEM

Row | Compound | GI50 (SR) | GI50 (NCI-H226) | GI50 (SNB-19) | GI50 (NCI-H460) | GI50 (A498) | GI50 (LOX IMVI) | GI50 (K562) | GI50 (NCI-H522) | GI50 (UACC-62) | GI50 (MOLT-4) | GI50 (COLO 205) | GI50 (RPMI-8226) | GI50 (OVCAR-8) | GI50 (SF-295) | GI50 (HT-29) | GI50 (UO-31) | GI50 (CCRF-CEM)
1 | CCOC(=O)CCC(NC(=O)c1ccc(/N=C/c2nc3cc(C(F)(F)F)ccc3nc2-c2ccccc2)cc1)C(=O)OCC (stereo unspecified) | > 50 µM (inactive) | > 50 µM (inactive) | 10.6 µM (inactive) | 24 µM (inactive) | 23.4 µM (inactive) | 14.4 µM (inactive) | > 50 µM (inactive) | 12.3 µM (inactive) | 12.2 µM (inactive) | > 50 µM (inactive) | 25.5 µM (inactive) | > 50 µM (inactive) | 7.33 µM (inactive) | 9.84 µM (inactive) | > 50 µM (inactive) | > 50 µM (inactive) | > 50 µM (inactive)
2 | CC1CC2C3CC(F)C4=CC(=O)C=CC4(C)C3(F)C(O)CC2(C)C1(O)C(=O)CO (stereo unspecified) | > 100 µM (inactive) | > 100 µM (inactive) | > 100 µM (inactive) | > 100 µM (inactive) | – | > 100 µM (inactive) | > 100 µM (inactive) | > 100 µM (inactive) | > 100 µM (inactive) | > 100 µM (inactive) | > 100 µM (inactive) | > 100 µM (inactive) | – | > 100 µM (inactive) | > 100 µM (inactive) | > 100 µM (inactive) | 0.0112 µM (active)
3 | COC(=O)c1c/c(=N\NC(=O)CC(=O)Nc2ccccc2OC)c2ccccc2o1 | > 100 µM (inactive) | > 100 µM (inactive) | > 100 µM (inactive) | 76 µM (inactive) | > 100 µM (inactive) | 66.8 µM (inactive) | 54.2 µM (inactive) | > 100 µM (inactive) | > 100 µM (inactive) | 75.7 µM (inactive) | > 100 µM (inactive) | > 100 µM (inactive) | – | – | > 100 µM (inactive) | > 100 µM (inactive) | –
4 | O=C1CC(c2ccc(Cl)cc2)=Nc2ccccc2N1 | 37.8 µM (inactive) | > 100 µM (inactive) | 51.6 µM (inactive) | 34.7 µM (inactive) | 79.6 µM (inactive) | 24.2 µM (inactive) | 40 µM (inactive) | 40.9 µM (inactive) | > 100 µM (inactive) | > 100 µM (inactive) | > 100 µM (inactive) | – | 25.9 µM (inactive) | 86.7 µM (inactive) | > 100 µM (inactive) | 48 µM (inactive) | 15.1 µM (inactive)
5 | N=C(N)n1ncc(Cl)c(Cl)c1=O | – | 5.25 µM (inactive) | 4.16 µM (inactive) | 5.97 µM (inactive) | 18.6 µM (inactive) | – | 2.32 µM (inactive) | 1.79 µM (inactive) | 2.48 µM (inactive) | 2.02 µM (inactive) | 1.88 µM (inactive) | 2.28 µM (inactive) | 2.15 µM (inactive) | 10.8 µM (inactive) | – | 2.38 µM (inactive) | 2.15 µM (inactive)
6 | O=C(Nc1ccc(Cl)c(Cl)c1)C1C(=O)N(c2ccc(Cl)c(Cl)c2)C(=O)/C1=N\O (stereo unspecified) | – | 50.5 µM (inactive) | > 100 µM (inactive) | – | > 100 µM (inactive) | 24.5 µM (inactive) | 16.9 µM (inactive) | 27.4 µM (inactive) | > 100 µM (inactive) | > 100 µM (inactive) | 19.3 µM (inactive) | > 100 µM (inactive) | > 100 µM (inactive) | 73.5 µM (inactive) | 39.4 µM (inactive) | > 100 µM (inactive) | 42.1 µM (inactive)
7 | CC12CCC[C@@](C)(C(=O)OC3OC(CO)C(O)C(O)C3O)[C@H]1CCC13CC4CC(OC4(CO)[C@H]1O)[C@@H]23 (stereo partly specified) | > 100 µM (inactive) | > 100 µM (inactive) | > 100 µM (inactive) | > 100 µM (inactive) | > 100 µM (inactive) | – | > 100 µM (inactive) | > 100 µM (inactive) | > 100 µM (inactive) | > 100 µM (inactive) | – | > 100 µM (inactive) | > 100 µM (inactive) | > 100 µM (inactive) | > 100 µM (inactive) | > 100 µM (inactive) | > 100 µM (inactive)
8 | COC(=O)C(Cc1nc2ccccc2nc1O)C(NO)C(=O)Nc1c(Cl)cc([N+](=O)[O-])cc1Cl (stereo unspecified) | 31.3 µM (inactive) | – | 40.1 µM (inactive) | 20.7 µM (inactive) | 21.4 µM (inactive) | – | 40.8 µM (inactive) | 15.5 µM (inactive) | 18 µM (inactive) | 27.9 µM (inactive) | 46.2 µM (inactive) | 34.7 µM (inactive) | 30.4 µM (inactive) | 27.7 µM (inactive) | 35.2 µM (inactive) | 36.1 µM (inactive) | 23.3 µM (inactive)
9 | CC(=O)NC1=C(NCCC(C)C)C(=O)c2ccccc2C1=O | > 50 µM (inactive) | > 50 µM (inactive) | > 50 µM (inactive) | > 50 µM (inactive) | – | > 50 µM (inactive) | > 50 µM (inactive) | > 50 µM (inactive) | > 50 µM (inactive) | > 50 µM (inactive) | > 50 µM (inactive) | – | > 50 µM (inactive) | > 50 µM (inactive) | > 50 µM (inactive) | > 50 µM (inactive) | > 50 µM (inactive)
